Results on two compounds are retold here after PMC11456799 (Molecular Therapy. Nucleic Acids, 2024).

One data set deals with WA-1/2020 SARS-CoV-2. Also on record: species or system K18-hACE2 mice. Conditions: mouse, in vivo, po, 150 mg/kg.
The next data set has as its system SARS-CoV-2 WA-1/2020. The experiment in a line: In vitro antiviral assay in HeLa-ACE2 cells. It is filed as cell-based. Conditions: Severe acute respiratory syndrome coronavirus 2, HeLa-ACE2.
The subject of the next data set is HeLa-ACE2 cells. Conditions: human.
The nature of the next data set: in vitro. To be noted: human.
A further data set concerns SARS-CoV-2 Omicron BA.5. The data set is described as follows: In vitro antiviral assay in HeLa-ACE2 cells. It is filed as cell-based. Conditions: Severe acute respiratory syndrome coronavirus 2, HeLa-ACE2.
Data set [1] relates to SARS-CoV-2 Omicron XBB1.5. The data set is described as follows: In vitro antiviral assay in HeLa-ACE2 cells. The data set is classed as cell-based. To be noted: Severe acute respiratory syndrome coronavirus 2, HeLa-ACE2.
The subject of data set [2] is SARS-CoV-2 Delta (B.1.617.2). The data set is described as follows: In vitro antiviral assay in HeLa-ACE2 cells. The data set is classed as cell-based. To be noted: Severe acute respiratory syndrome coronavirus 2, HeLa-ACE2.
In another data set the test system is SARS-CoV-2 Omicron BA.1. The data set is described as follows: In vitro antiviral assay in HeLa-ACE2 cells. It is filed as cell-based. Conditions: Severe acute respiratory syndrome coronavirus 2, HeLa-ACE2.
For a further data set, the system named is SARS-CoV-2 Omicron JN.1. The experiment in a line: In vitro antiviral assay in HeLa-ACE2 cells. The data set is classed as cell-based. Conditions: Severe acute respiratory syndrome coronavirus 2, HeLa-ACE2.

With `CC(C)C(=O)OC[C@H]1O[C@@H](n2ccc(NO)nc2=O)[C@H](O)[C@@H]1O` [MK-4482, molnupiravir], the “lung virus titer lowering (positive control)” value in the data set on WA-1/2020 SARS-CoV-2 is reported as “approximately 3 log10 ffu/g tissue”.

In the case of `CC(C)(C)[C@H](NC(=O)C(F)(F)F)C(=O)N1C[C@H]2[C@@H]([C@H]1C(=O)N[C@H](C#N)C[C@@H]1CCNC1=O)C2(C)C` [Nirmatrelvir, nirmatrelvir], the IC50 with SARS-CoV-2 WA-1/2020 worked out at 110 nM; in the data set on SARS-CoV-2 Omicron BA.5 it was 50 nM; in data set [1], 20 nM; in data set [2], 40 nM; with SARS-CoV-2 Omicron BA.1, 30 nM; with SARS-CoV-2 Omicron JN.1 it was 60 nM. Also, the concentration for an effect of 90% (IC90) in the data set on SARS-CoV-2 WA-1/2020 was determined as 210 nM; with SARS-CoV-2 Omicron BA.5, 140 nM; in [1] it was 50 nM; in [2], 170 nM; in the data set with SARS-CoV-2 Omicron BA.1 it was 80 nM; in the data set with SARS-CoV-2 Omicron JN.1 it was 150 nM. In addition, the CC50 in the data set on HeLa-ACE2 cells and in “in vitro” was above 5000 nM throughout.

For orientation: IC50 means the concentration that gives 50% inhibition. Lower therefore signals greater potency. By IC90 is commonly meant the concentration at which the effect reaches the 90% level. Low readings indicate greater potency, high ones weaker potency.
